Measured values as given in patent US10349662B2, “Insecticidal compositions and methods of using the same” (priority 2011, dated 2019).
≈ marks a conversion by molar mass, not a printed value. Where “and” joins values, the source holds several entries; their conditions need not be identical. Identical values can stand only once. Like-named read-outs stand apart in the source and are kept apart here.

Experiments:
Aedes aegypti mosquitoes = assay: Topical bioassay on adult female Aedes aegypti mosquitoes (knockdown 1 h, mortality 24 h; Colby calculation for combinations); type: in vivo
From the text: Components of a composition can have a synergistic or additive effect on insecticidal activity. Components have an additive effect when the effect of the combination is equal to the sum of the effects of each individual component. In contrast, components have a synergistic effect when the effect of the combination exceeds the sum of the effects of the components when applied individually. The effect (E) of a combination of two compounds may be calculated using the Colby formula (1) (S. R. Colby, “Calculating Synergistic and Antagonistic Responses of Herbicide Combinations”, Weeds 1967, 15, 20-22):
If the actual insecticidal kill rate is the calculated value (E), then the action of the combination is additive. If the actual insecticidal kill rate exceeds the calculated value (E), then the action of the combination is super-additive, that is, a synergistic effect is present. If the insecticidal kill rate is lower than the calculated value (E), then the action of the combination is considered antagonistic.
Adult female Aedes aegypti mosquitoes were segregated in 18″×18″ screen cages based on date of eclosion, therefore the exact age of the mosquitoes were known for bioassays.
Ten female mosquitoes, aged four to six days after eclosion, were aspirated out of their respective cage and into a small glass jar. The mosquitoes were then anesthetized with CO2 gas for 30 seconds. After the adults were anesthetized, they were quickly placed on a plastic platform for treatment application. Treatments were serially diluted (using a BrandTech Scientific Transferpette S pipette (100-1000 μL), labeled centrifuge tubes, and a vortex mixer) from stocks of insecticides using reagent grade acetone as the diluent to concentrations as indicated for each treatment solution. A treatment solution may contain additional ingredients as indicated for each study.
Using a Hamilton PB00-1 Repeating Dispenser with a Hamilton 25 Microliter Syringe, 0.5 μL of each treatment solution was applied to the thorax of each mosquito. Immediately following the application of the treatment, the mosquitoes were gently transferred into a clean paper cup and covered with screen. The mesh screen prevented the mosquitoes from escaping and allowed the specimens to be viewed for ratings. A cotton ball soaked with 10% sucrose solution was inserted into a side hole of each cup for hydration and nourishment. Each treatment variable in the study was replicated three times using separate cups for each replication.
The untreated controls treatments were anesthetized for 30 seconds and gently transferred to the paper cups. The acetone treated control was treated exactly as described above except that the solution applied to each mosquito was undiluted acetone.
The condition of the mosquitoes in each cup was recorded at one hour and 24 hours after initial treatment. The condition classifications used were (1) alive and flying, (2) alive and unable to fly, or (3) dead. The percent mortality for each treatment was calculated by summing the mortalities of each replicate then calculating the percent dead from the total number of mosquitoes.
Where indicated, the mortality data were subjected to probit analysis using the Statistical Analysis System Version 9.1 program PROC PROBIT (SAS Institute (2003) PROC user's manual, version 9.1. SAS Institute, Cary, N.C.).

[1] = cited from earlier work
[2] = test system: Culex quinquefasciatus mosquitoes; assay: Topical bioassay on adult female Culex quinquefasciatus mosquitoes (knockdown 1 h, mortality 24 h; Colby calculation for combinations); type: in vivo
Cytochrome P450 enzyme = assay: P450 activity assay (7-ethoxycoumarin, fluorescence); type: biochemical, A. aegypti; settings: FIG. 2; for inhibition of P450 activity: added to the assay
Experimental: Cytochrome P450 enzyme solution was prepared by homogenizing 15, 3 to 5 day old, A. aegypti females and centrifuging the mixture at 10,000 g for 1 minute. The pellet was discarded, and the supernatant was used as the P450 enzyme stock solution. 10 μL of this P450 enzyme stock and 90 μL of 7-ethoxycoumarin solution (0.526 mM of 7-ethoxycoumarin, 1.11 mM NADPH, 0.05 mM phosphate buffer) was added to each well of the micropipette plate to begin the reaction. During the reaction, the micropipette plate was covered with aluminum foil to prevent photo-bleaching. The reaction was incubated at 30° C. for 4 hours. The reaction was stopped by adding 30 μL of stop solution (0.1 mM glycine, pH 10.4, 50% ethanol). The micropipette plate was then analyzed by measuring the fluorescence (Emission=460 nm, Excitation=360 nm) of each well. High fluorescence was directly related to product, and thus indicated a high level of P450 activity.

C=C1CC/C=C(\C)CC[C@@H]2[C@@H]1CC2(C)C [β-Caryophyllene]
1 hour knockdown (Aedes aegypti mosquitoes; 1%): 0% | % MORTALITY AFTER 24 HRS (Aedes aegypti mosquitoes; 1%): 0% | % MORTALITY AFTER 24 HRS (Aedes aegypti mosquitoes; 3%): 0% | % MORTALITY AFTER 24 HRS (Aedes aegypti mosquitoes; 3%, listed as β-CARYOPHYLLENE): 77% | 1 hour knockdown (Aedes aegypti mosquitoes; 5%): 10% | % MORTALITY AFTER 24 HRS (Aedes aegypti mosquitoes; 5%): 17% | 1 hour knockdown (Aedes aegypti mosquitoes; 10%): 57% | % MORTALITY AFTER 24 HRS (Aedes aegypti mosquitoes; 10%): 40% | 1 hour knockdown (Aedes aegypti mosquitoes; 20%): 93% | % MORTALITY AFTER 24 HRS (Aedes aegypti mosquitoes; 20%): 83% | % MORTALITY AFTER 24 HRS (Aedes aegypti mosquitoes; single active, 3%): 7% and 10% | Vapor Pressure (@ 25° C.) [1]: 0.031 mmHg | Solubility (in water @ 25° C.) [1]: 0.05 µg/mL (≈ 0.245 µM)

CC1=CCC2CC1C2(C)C (stereo not drawn) [Pinene Alpha]
Vapor Pressure (@ 25° C.) [1]: 4.75 mmHg

C=C(C)C1CC=C(C=O)CC1 (stereo not shown) [Perillaldehyde, perillaldehyde]
1 hour knockdown (Aedes aegypti mosquitoes; 3%): 53% | mortality at 1 % (Aedes aegypti mosquitoes; Aedes aegypti, topical, 24 h, read-out: % MORTALITY AFTER 24 HRS, 1%): 3% | mortality at 1 % (Aedes aegypti mosquitoes; Aedes aegypti, topical, 24 h, read-out: % MORTALITY AFTER 24 HRS, single active, 1%): 0% | mortality at 3 % (Aedes aegypti mosquitoes; Aedes aegypti, topical, 24 h, read-out: % MORTALITY AFTER 24 HRS, single active, 3%): 73% | 1 hour knockdown ([2]; 2%): 33% | % MORTALITY AFTER 24 HRS ([2]; 2%): 13% | % MORTALITY AFTER 24 HRS ([2]; 3%): 13% | inhibition of P450 activity (Cytochrome P450 enzyme): acted as inhibitors | inhibition of P450 activity relative to PBO (Cytochrome P450 enzyme; perillaldehyde at 1% vs PBO at 2%): as potent an inhibitor of P450 as PBO at 2% | inhibition of P450 activity relative to PBO (Cytochrome P450 enzyme; perillaldehyde at 10% vs PBO at 2%): a more potent inhibitor of P450 than PBO at 2% | Vapor Pressure (@ 25° C.) [1]: 0.0463 mmHg | Solubility (in water @ 25° C.) [1]: 160.7 µg/mL (≈ 1070 µM)

C=C(C)[C@H]1CC=C(C)CC1 [D-limonene]
Vapor Pressure (@ 25° C.) [1]: 1.541 mmHg

C=C1/C=C/[C@H](C(C)C)CC/C(C)=C/CC1 [Germacrene D]
Vapor Pressure (@ 25° C.) [1]: 0.023 mmHg | Solubility (in water @ 25° C.) [1]: 0.013 µg/mL (≈ 0.0636 µM)

C=C1CC[C@H]2O[C@]2(C)CC[C@@H]2[C@@H]1CC2(C)C [Caryophyllene Oxide-Beta]
Vapor Pressure (@ 25° C.) [1]: 0.01 mmHg | Solubility (in water @ 25° C.) [1]: 2.21 µg/mL (≈ 10 µM)

CC(C)=CCC[C@]1(C)[C@H]2CC=C(C)[C@@H]1C2 (relative stereo) [Bergamotene Trans Alpha]
Vapor Pressure (@ 25° C.) [1]: 0.028 mmHg | Solubility (in water @ 25° C.) [1]: 0.030 µg/mL (≈ 0.147 µM)

CCCCOCCOCCOCc1cc2c(cc1CCC)OCO2 [PBO, piperonyl butoxide, reference compound]
inhibition of P450 activity (Cytochrome P450 enzyme): acted as inhibitors

CN/C(=N/CC1CCOC1)N[N+](=O)[O-] (stereo not shown) [Dinotefuran, dinotefuran, reference compound]
1 hour knockdown (Aedes aegypti mosquitoes; 0.004 μg/mosquito): 0% | % MORTALITY AFTER 24 HRS (Aedes aegypti mosquitoes; 0.004 μg/mosquito): 0% | 1 hour knockdown (Aedes aegypti mosquitoes; 0.006 μg/mosquito): 0% and 3% | mortality at 0.004 µg/mosquito (Aedes aegypti mosquitoes; Aedes aegypti, topical, 24 h, read-out: % MORTALITY AFTER 24 HRS, 0.004 μg/mosquito): 0% | LD50 (Aedes aegypti mosquitoes; topical application, adult Aedes aegypti): 0.06 μg/mosquito | 1 hour knockdown ([2]; 0.008 μg/mosquito): 10% | % MORTALITY AFTER 24 HRS ([2]; 0.008 μg/mosquito): 77% and 73%

C=CC(C)(O)CCC=C(C)C (stereo not shown) [Linalool]
Vapor Pressure (@ 25° C.) [1]: 0.16 mmHg | Viscosity (@ 25° C.) [1]: 4.4 mPa

C=C/C(C)=C/C/C=C(\C)CCC=C(C)C [Farnesene Alpha]
Vapor Pressure (@ 25° C.) [1]: 0.025 mmHg | Solubility (in water @ 25° C.) [1]: 0.011 µg/mL (≈ 0.0538 µM)

C=C1CCC2CC1C2(C)C (stereo not drawn) [Pinene Beta]
Vapor Pressure (@ 25° C.) [1]: 2.93 mmHg
